Among the data in patent US10086085B2, “Bifunctional cytotoxic agents” (priority 2014, dated 2018) are IC50 values, retold here.

As a reminder, the IC50 is the concentration at which inhibition is half-maximal.

In assay [1] the test system is N87 (human gastric carcinoma derived from metastatic liver site). As to the kind of experiment: Cytotoxicity assay for payloads (MTS), N87 cells. The settings on record: Homo sapiens, 96 h; N87 cells, incubated with compounds for four days, MTS absorbance 490 nm; read-out: N87 IC50. Type of assay: cell-based. Put shortly:
(§1)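 Cells in RPMI 1640 with 10% FBS exposed to compounds for four days at 10 concentrations in duplicate. Viability read by MTS absorbance at 490 nm after 1.5 h, as % of untreated controls; IC50 from four-parameter logistic fit.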

The test system of a further assay is HL60 (leukemia). As to the kind of experiment: Cytotoxicity assay for payloads (MTS), HL-60 cells. The following applies: Homo sapiens, 96 h, incubated with compounds for four days, MTS absorbance 490 nm. The class given is cell-based. Put shortly: as §1

As to `O=C(c1ccc(C(=O)N2C[C@@H](CCl)c3c2cc(OP(=O)(O)O)c2ccccc32)s1)N1C[C@@H](CCl)c2c1cc(O)c1ccccc21` [Compound 171, (1S)-1-(chloromethyl)-3-[(5-{[(1S)-1-(chloromethyl)-5-hydroxy-1,2-dihydro-3H-benzo[e]indol-3-yl]carbonyl}thiophen-2-yl)carbonyl]-2,3-dihydro-1H-benzo[e]indol-5-yl dihydrogen phosphate], the IC50 stood at 1.55 nM in assay [1] and 0.131 nM with HL60 (leukemia).
For `CC(=O)Oc1cc2c(c3ccccc13)[C@H](CCl)CN2C(=O)c1cc(C(=O)N2C[C@@H](CCl)c3c2cc(OC(C)=O)c2ccccc32)n(C)n1` [Compound 74, acetic acid (S)-3-[5-((S)-5-acetoxy-1-chloromethyl-1,2-dihydro-benzo[e]indole-3-carbonyl)-1-methyl-1H-pyrazole-3-carbonyl]-1-chloromethyl-2,3-dihydro-1H-benzo[e]indol-5-yl ester], the figures for the IC50 (in assay [1]; in the assay with HL60 (leukemia)) were 76.5 nM and 7.49 nM, respectively.
In the case of `O=C(CCSCCC(=O)N1C[C@@H](CCl)c2c1cc(O)c1ccccc21)N1C[C@@H](CCl)c2c1cc(O)c1ccccc21` [Compound 23, (S)-3,3′-thiobis(1-((S)-1-(chloromethyl)-5-hydroxy-1H-benzo[e]indol-3(2H)-yl)propan-1-one)], the IC50 was determined as 0.252 nM in assay [1] and 0.072 nM with HL60 (leukemia).
Taken in the same sequence, the figures for `Cc1c[nH]c2c(O)cc3c(c12)[C@H](CCl)CN3C(=O)CN(CC(=O)N1C[C@@H](CCl)c2c1cc(O)c1[nH]cc(C)c21)C(=O)OCC1c2ccccc2-c2ccccc21` [Compound 169, 9H-fluoren-9-ylmethyl bis{2-[(1S)-1-(chloromethyl)-5-hydroxy-8-methyl-1,6-dihydropyrrolo[3,2-e]indol-3(2H)-yl]-2-oxoethyl}carbamate] were 9.82 nM and 0.388 nM.
As to `CC(=O)Oc1cc2c(c3ccccc13)[C@H](CCl)CN2C(=O)CC1(CC(=O)N2C[C@@H](CCl)c3c2cc(OC(C)=O)c2ccccc32)CCCC1` [Compound 157, cyclopentane-1,1-diylbis[(1-oxoethane-2,1-diyl)(1S)-1-(chloromethyl)-1,2-dihydro-3H-benzo[e]indole-3,5-diyl] diacetate], the IC50 in assay [1] is not below 10 nM; in the assay on HL60 (leukemia) it was 77.4 nM.
As to `O=C(c1ccc(C(=O)N2C[C@@H](CCl)c3c2cc(O)c2ccccc32)[nH]1)N1C[C@@H](CCl)c2c1cc(O)c1ccccc21` [Compound 32, (S)-(1H-pyrrole-2,5-diyl)bis(((S)-1-(chloromethyl)-5-hydroxy-1H-benzo[e]indol-3(2H)-yl)methanone)], the values for the IC50 (in assay [1]; in the assay on HL60 (leukemia)) were 0.052 nM and 0.005 nM, respectively.
Taken in the same sequence, the figures for `CC(=O)Oc1cc2c(c3ccccc13)[C@H](CCl)CN2C(=O)c1ccc(C(=O)N2C[C@@H](CCl)c3c2cc(OC(C)=O)c2ccccc32)cc1` [Compound 176, benzene-1,4-diylbis[carbonyl(1S)-1-(chloromethyl)-1,2-dihydro-3H-benzo[e]indole-3,5-diyl] diacetate] were 26.4 nM and 0.199 nM.
Taken in the same sequence, the figures for `Nc1cccc(C(CC(=O)N2C[C@@H](CCl)c3c2cc(O)c2ccccc32)CC(=O)N2C[C@@H](CCl)c3c2cc(O)c2ccccc32)c1` [Compound 44, 3-(3-Amino-phenyl)-1,5-bis-((S)-1-chloromethyl-5-hydroxy-1,2-dihydro-benzo[e]indol-3-yl)-pentane-1,5-dione] were not below 10 nM and 5.29 nM.
`O=C(OCC1c2ccccc2-c2ccccc21)N(CC(=O)N1C[C@@H](CCl)c2c1cc(O)c1ccccc21)CC(=O)N1C[C@@H](CCl)c2c1cc(O)c1ccccc21` [Compound 172, 9H-fluoren-9-ylmethyl bis{2-[(1S)-1-(chloromethyl)-5-hydroxy-1,2-dihydro-3H-benzo[e]indol-3-yl]-2-oxoethyl}carbamate]: the half-maximal inhibitory concentration (IC50) in assay [1] was determined as 13.8 nM; in the assay on HL60 (leukemia) it was 0.474 nM.
In the case of `Nc1ccc(C(CC(=O)N2C[C@@H](CCl)c3c2cc(O)c2ccccc32)CC(=O)N2C[C@@H](CCl)c3c2cc(O)c2ccccc32)cc1` [Compound 48, 3-(4-Amino-phenyl)-1,5-bis-((S)-1-chloromethyl-5-hydroxy-1,2-dihydro-benzo[e]indol-3-yl)-pentane-1,5-dione], the IC50 was found to be 12.2 nM in assay [1] and 1.75 nM in the assay with HL60 (leukemia).
For the molecule `Cc1c[nH]c2c(O)cc3c(c12)[C@H](CCl)CN3C(=O)C12CC(C(=O)N3C[C@@H](CCl)c4c3cc(O)c3[nH]cc(C)c43)(C1)C2` [Compound 147, bicyclo[1.1.1]pentane-1,3-diylbis{[(1S)-1-(chloromethyl)-5-hydroxy-8-methyl-1,6-dihydropyrrolo[3,2-e]indol-3(2H)-yl]methanone}], the values for the IC50 (in assay [1]; in the assay with HL60 (leukemia)) were 0.017 nM and 0.003 nM, respectively.
